Source: paper PMC4198181, “Gold(I) Complexes of 9-Deazahypoxanthine as Selective Antitumor and Anti-Inflammatory Agents” (PLoS ONE, 2014)

Experiments:
[1] = system: human cancer cell lines (MCF7, HOS, A549, G361, HeLa, A2780, A2780R, 22Rv1); test: MTT in vitro cytotoxicity, summary over the panel of human cancer cell lines; type: cell-based; conditions: on the MCF7 and HOS cell lines
Description: In vitro cytotoxic activity was determined by the MTT assay in human breast adenocarcinoma (MCF7; ECACC no. 86012803), human osteosarcoma (HOS; ECACC no. 87070202), lung carcinoma (A549; ECACC no. 86012804), malignant melanoma (G361; ECACC no. 88030401), cervix epitheloid carcinoma (HeLa; ECACC no. 93021013), ovarian carcinoma (A2780; ECACC no. 93112519), cisplatin-resistant ovarian carcinoma (A2780R; ECACC no. 93112517) and prostate carcinoma (22Rv1; ECACC no 105092802) cancer cell lines, purchased from European Collection of Cell Cultures (ECACC). The cells were cultured according to the ECACC instructions and they were maintained at 37°C and 5% CO2 in a humidified incubator. The primary culture of human hepatocytes (HEP220, batch number HEP220819) was obtained from Biopredic International (France). The culture medium was Williams and HAM's F-12 (1∶1) supplemented with penicillin, streptomycin, ascorbic acid, linoleic acid, holo-transferin, ethanolamine, glucagon, insulin, dexamethasone, pyruvate, glucose, glutamine, amphotericin. The medium was enriched for plating with 2% foetal calf serum (v/v). The medium was exchanged for a serum-free medium the day after and the culture was stabilized for additional 24 h. Thereafter, the cells were ready for treatments. The cultures were maintained at 37°C and 5% CO2 in a humidified incubator. The cells were treated with complexes 1–5 (at the concentration levels of 0.01, 0.1, 1.0, 5.0, 25.0, and 50.0 µM), starting compounds e.g. HL1–5, AuCl, and cisplatin (applied up to 50 µM) for 24 h, using multi-well culture plates of 96 wells. […]
The cytotoxicity data were expressed as the percentage of viability, where 100% represented the treatments with vehicle (0.1% DMF or 0.1% DMSO). […] The IC50 values were calculated from viability curves. […] The significance of the differences between the results was assessed by the ANOVA analysis with p<0.05 considered to be significant (QC Expert 3.2, Statistical software, TriloByte Ltd., Pardubice, Czech Republic).

[2] = Interactions with L-cysteine and reduced glutathione by ESI+ MS; type: physicochemical; conditions: 20 µM complex, 290 µM cysteine, 6 µM glutathione, methanol/water 1:1
Description: The interactions of selected gold(I) complexes 2 and 4, involving the isopropyloxy and benzyloxy substituent on C6 of 9-deazapurine, with the sulfur-containing biomolecules (i.e. L-cysteine and reduced glutathione) were studied by ESI+ mass spectrometry (ESI+ MS). The experiments were carried out using a Thermo Scientific LTQ Fleet Ion-Trap mass spectrometer, in positive ionization mode. The reactions of the representative complexes 2 and 4 were performed in methanol/water mixture (1∶1, v/v) containing the physiological concentrations of L-cysteine and glutathione (at the final concentrations of 290 µM, and 6 µM [63], respectively). The reference system consisted of the solutions of complexes (20 µM) in methanol/water mixture (1∶1, v/v). The flow injection analysis (FIA) method was utilized to introduce the reaction system (5 µL spikes) into the mass spectrometer and pure acetonitrile was used as a mobile phase. The ESI-source was set-up as follows: source voltage (5 kV), the vaporizer temperature (160°C), the capillary temperature (250°C), the sheath gas flow (30 L/min), and auxiliary gas flow rate (10 L/min). The system was calibrated as stated in the manufactured specifications and no further tuning was needed.

With `CC(C)Oc1ncnc2cc[n]([Au])c12.c1ccc(P(c2ccccc2)c2ccccc2)cc1` [complex 2, [Au(L2)(PPh3)]] the “times more efficient than cisplatin” value [1] was “at least 20 times” and the “time within which interaction intermediates with cysteine/glutathione were detected (N-ligand exchange)” value [2] was at most 1 h.
